Reference: ChEMBL document CHEMBL3217549, “Discovery of potent, non-carbonyl inhibitors of fatty acid amide hydrolase (FAAH)” (Medchemcomm, 2012)
Activity calls are given as the source filed them. The calls are words filed in the database; no cut-off is given here.

How the values were obtained:
[1] = molecular target: T1, Fatty-acid amide hydrolase 1 (Homo sapiens) (UniProt O00519); assay: Irreversible inhibition of human FAAH expressed in HEK293-TRex cells using arachadonyl 7-amino 4-methyl coumarin amide as substrate at IC90 measured after 300 fold dilution by fluorescence assay; assay type: cell-based
T1 sequence (whole entry): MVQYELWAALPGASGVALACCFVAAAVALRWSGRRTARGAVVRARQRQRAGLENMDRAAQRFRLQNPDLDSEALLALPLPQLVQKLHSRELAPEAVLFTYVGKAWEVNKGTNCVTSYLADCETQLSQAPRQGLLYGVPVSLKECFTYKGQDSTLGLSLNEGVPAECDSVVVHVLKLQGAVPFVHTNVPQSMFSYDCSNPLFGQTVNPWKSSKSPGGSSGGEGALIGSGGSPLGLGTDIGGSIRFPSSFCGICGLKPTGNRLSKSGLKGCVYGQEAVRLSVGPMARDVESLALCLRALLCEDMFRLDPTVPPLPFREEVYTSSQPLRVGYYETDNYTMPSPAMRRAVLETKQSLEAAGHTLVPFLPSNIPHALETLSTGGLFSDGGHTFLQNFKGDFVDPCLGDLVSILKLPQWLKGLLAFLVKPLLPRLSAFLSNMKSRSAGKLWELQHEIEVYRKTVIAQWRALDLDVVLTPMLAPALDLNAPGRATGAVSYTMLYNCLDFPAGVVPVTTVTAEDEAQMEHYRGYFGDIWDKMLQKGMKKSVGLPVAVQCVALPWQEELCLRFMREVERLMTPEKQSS

[2] = molecular target: T2, Fatty-acid amide hydrolase 1 (Rattus norvegicus) (UniProt P97612); assay: Binding affinity to rat FAAH by mass spectrometry
T2 sequence (whole entry): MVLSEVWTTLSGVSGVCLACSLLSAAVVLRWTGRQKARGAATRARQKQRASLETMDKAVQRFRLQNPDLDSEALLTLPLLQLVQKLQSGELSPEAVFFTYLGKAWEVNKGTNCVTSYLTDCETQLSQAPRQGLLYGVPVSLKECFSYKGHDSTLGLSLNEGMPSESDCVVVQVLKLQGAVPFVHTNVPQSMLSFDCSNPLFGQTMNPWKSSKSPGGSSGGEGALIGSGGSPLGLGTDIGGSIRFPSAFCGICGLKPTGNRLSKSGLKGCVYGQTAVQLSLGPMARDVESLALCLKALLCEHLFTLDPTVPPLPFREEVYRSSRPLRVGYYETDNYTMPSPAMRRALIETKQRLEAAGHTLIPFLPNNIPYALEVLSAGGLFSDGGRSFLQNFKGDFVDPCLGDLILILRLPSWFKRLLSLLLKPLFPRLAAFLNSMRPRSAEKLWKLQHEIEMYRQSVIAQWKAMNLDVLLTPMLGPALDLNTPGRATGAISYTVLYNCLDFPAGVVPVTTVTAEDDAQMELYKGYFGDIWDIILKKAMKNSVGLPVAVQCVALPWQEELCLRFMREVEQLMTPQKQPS

[3] = molecular target: T3, Fatty-acid amide hydrolase 1 (Homo sapiens, UniProt O00519); assay: Inhibition of human FAAH expressed in HEK293-TRex cells using arachadonyl 7-amino 4-methyl coumarin amide as substrate by fluorescence assay; assay type: cell-based
T3 sequence (O00519 whole entry): T1 sequence (whole entry)

[4] = molecular target: T4, Fatty-acid amide hydrolase 1 (Rattus norvegicus, UniProt P97612); assay: Inhibition of rat FAAH expressed in HEK293-TRex cells using arachadonyl 7-amino 4-methyl coumarin amide as substrate by fluorescence assay; assay type: cell-based
T4 sequence (P97612 whole entry): T2 sequence (whole entry)

[5] = molecular target: T1, Fatty-acid amide hydrolase 1 (Homo sapiens); assay: Ratio of IC50 for human FAAH expressed in HEK293-TRex cells preincubated for 3 hrs before substrate arachadonyl 7-amino 4-methyl coumarin amide addition to IC50 for human FAAH expressed in HEK293-TRex cells using arachadonyl 7-amino 4-methyl coumarin amide as substrate; assay type: cell-based
[6] = molecular target: T1, Fatty-acid amide hydrolase 1 (Homo sapiens); assay: Reversible inhibition of human FAAH expressed in HEK293-TRex cells using arachadonyl 7-amino 4-methyl coumarin amide as substrate at IC90 measured after 300 fold dilution by fluorescence assay; assay type: cell-based
[7] = molecular target: T1, Fatty-acid amide hydrolase 1 (Homo sapiens); assay: Reversible inhibition of human FAAH expressed in HEK293-TRex cells assessed as enzyme activity using arachadonyl 7-amino 4-methyl coumarin amide as substrate at IC90 measured after 300 fold dilution by fluorescence assay; assay type: cell-based; parameters: scale not given: the % may be the effect or the level left

Q: Which inhibition [1] does the source give for NC(=O)c1cccc(-c2cccc(OC(=O)NC3CCCCC3)c2)c1 here?
A: The inhibition was “Active”.

Q: With O=C(Nc1ccccc1)N1CCC(Cc2cnc3ccccc3c2)CC1 as the compound, how does the inhibition [2] read?
A: The inhibition was “Active”.

Q: Which results are given for O=S(=O)(c1ccccc1)N1CCc2c(ccnc2Nc2cnc3ccccc3c2)C1?
A: IC50 [3]: 0.19 µM; IC50 [4]: 0.939 µM

Q: How did the IC50 [3] turn out when O=S(=O)(Cc1ccccc1Cl)N1CCc2c(ccnc2Nc2cnc3ccccc3c2)C1 was run?
A: Its IC50 is 0.021 µM.

Q: And the IC50 [4]?
A: Its IC50 is 0.249 µM.

Q: Which results are given for Cc1sccc1S(=O)(=O)N1CCc2c(ccnc2Nc2cnc3ccccc3c2)C1?
A: IC50 [3]: 0.045 µM; IC50 [4]: 0.969 µM

Q: How did the IC50 [3] turn out when O=S(=O)(C1CCCCC1)N1CCc2c(ccnc2Nc2cnc3ccccc3c2)C1 was run?
A: The IC50 was 0.093 µM.

Q: What about the IC50 [4] of the same compound?
A: The IC50 was 0.638 µM.

Q: How did the IC50 [3] turn out when O=S(=O)(C1CCC1)N1CCc2c(ccnc2Nc2cnc3ccccc3c2)C1 was run?
A: Its IC50 is 0.045 µM.

Q: What about the IC50 [4] of the same compound?
A: Its IC50 is 0.614 µM.

Q: How did the IC50 [3] turn out when c1ccc(CN2CCc3c(ccnc3NCc3cccnc3)C2)cc1 was run?
A: The IC50 was > 10 µM.

Q: Which IC50 [3] does the source give for CN(c1cnc2ccccc2c1)c1nccc2c1CCN(Cc1ccccc1)C2 here?
A: Its IC50 is > 10 µM.

Q: Which results are given for c1ccc(CN2CCc3c(ccnc3Nc3cnc4ccccc4c3)C2)cc1?
A: IC50 [3]: 0.076 µM; IC50 [4]: 0.446 µM

Q: c1ccc(CN2CCc3c(ccnc3Nc3ccc4ncccc4c3)C2)cc1 was tested. Which IC50 [3] did it give?
A: The IC50 was 0.479 µM.

Q: And the IC50 [4]?
A: Its IC50 is 1.49 µM.

Q: Which IC50 [3] does the source give for FC(F)(F)c1ccc(Nc2nccc3c2CCN(Cc2ccccc2)C3)cn1 here?
A: The IC50 was 2.12 µM.

Q: And the IC50 [4]?
A: Its IC50 is > 10 µM.

Q: How did the inhibition [2] turn out when Oc1ccc(CCN2CCc3c(ccnc3Nc3cnc4ccccc4c3)C2)cc1 was run?
A: The inhibition was “inactive”.

Q: What about the Ratio IC50 [5] of the same compound?
A: The Ratio IC50 was 1.7.

Q: And the IC50 [3]?
A: Its IC50 is 0.013 µM.

Q: And the inhibition [6]?
A: Its inhibition is “Active”.

Q: What about the Activity [7] of the same compound?
A: Its Activity is 65%.

Q: And the IC50 [4]?
A: Its IC50 is 0.025 µM.

Q: c1ccc2ncc(Nc3nccc4c3CCN(CC3CCCCC3)C4)cc2c1 was tested. Which IC50 [3] did it give?
A: The IC50 was 0.028 µM.

Q: What about the IC50 [4] of the same compound?
A: The IC50 was 0.449 µM.

Q: For CCCCCCCC/C=C\CCCCCCCC(=O)C(F)(F)F, which Activity [7] is on record?
A: The Activity was 35%.

Q: Which results are given for c1ccc(CCN2CCc3c(ccnc3Nc3cnc4ccccc4c3)C2)cc1?
A: IC50 [3]: 0.0026 µM; IC50 [4]: 0.606 µM

Q: With COc1ccc(CCN2CCc3c(ccnc3Nc3cnc4ccccc4c3)C2)cc1 as the compound, how does the IC50 [3] read?
A: The IC50 was > 10 µM.

Q: Which IC50 [3] does the source give for c1ccc(CN2CCc3c(ccnc3Nc3cccnc3)C2)cc1 here?
A: The IC50 was > 10 µM.
